“Also recorded” adds a separate entry of the source. Read-outs that look alike come from different tables or passages of the source.
Legend:
HIV-1 E138K = assay: Antiviral activity against HIV-1 mutant E138K in MT-4 cells; format: cell-based; conditions: Human immunodeficiency virus 1, MT4, read-out: EC50 E138K
HIV-1 Y188L = assay: Antiviral activity against HIV-1 mutant Y188L in MT-4 cells; format: cell-based; conditions: Human immunodeficiency virus 1, MT4, read-out: EC50 Y188L
CYP1A2 = biological target: T1, CYP1A2 (Homo sapiens, UniProt P05177); assay: CYP enzyme inhibition assay, CYP1A2; format: in vitro ADME; conditions: human liver microsomes
T1 construct: An incubation system of human liver microsomes (20 μL, 1.5 mg/mL); from tissue; host or cells: human liver microsomes
Method: (§1) An incubation system of human liver microsomes (20 μL, 1.5 mg/mL), 20 μL probe substrates, and 50 μL test compound in Tris (0.1 mol/L) was pre-incubated at 37 °C for 10 min, and then initiated by adding NADPH (10 μL, 10 mmol/L). […] Finally, the sample was centrifugated to obtain the supernatant for LC‒MS/MS analysis.

WT HIV-1 RT = WT HIV-1 RT (Human immunodeficiency virus type 1 group M subtype B, UniProt P03366); assay: Inhibition of WT HIV-1 RT polymerase activity
Method: The anti-HIV-1 activity of A1–A24 and B1–B22 at the cellular or enzyme level were evaluated following our previously reported method[15].

CYP2C19 = biological target: T2, CYP2C19 (Homo sapiens, UniProt P33261); assay: CYP enzyme inhibition assay, CYP2C19; format: in vitro ADME; conditions: human liver microsomes
T2 construct: An incubation system of human liver microsomes (20 μL, 1.5 mg/mL); from tissue; host or cells: human liver microsomes
Method: as §1

ICR mice = assay: Acute toxicity assay in ICR mice; format: in vivo
Method: A12 was suspended in PEG400/normal saline (80/20, v/v) to achieve a concentration of 100 mg/ml. Sixteen ICR mice (eight male/eight female, 18–22 g) were assigned into 4 groups randomly, and each group contained 4 male mice or 4 female mice (n = 4). […] Over the next two weeks, the mortality, body weight, and abnormal behaviors of these mice were monitored daily. All mice were dissected after blood collection on Day 14, and several vital organs were removed and then assessed for pathological damage by HE staining. The collected blood was submitted for blood biochemistry testing.

[1] = test system: HIV-1 K103N + Y181C (RES056); assay: Antiviral activity against HIV-1 double mutant K103N + Y181C (RES056) in MT-4 cells; format: cell-based; conditions: Human immunodeficiency virus 1, MT4, read-out: EC50 K103N + Y181C
CYP2D6 = biological target: T3, CYP2D6 (Homo sapiens, UniProt P10635); assay: CYP enzyme inhibition assay, CYP2D6; format: in vitro ADME; conditions: human liver microsomes; read-out: IC50 CYP2D6
T3 construct: An incubation system of human liver microsomes (20 μL, 1.5 mg/mL); from tissue; host or cells: human liver microsomes
Method: (§2) An incubation system of human liver microsomes (20 μL, 1.5 mg/mL), 20 μL probe substrates, and 50 μL test compound in Tris (0.1 mol/L) was pre-incubated at 37 °C for 10 min, and then initiated by adding NADPH (10 μL, 10 mmol/L). The system was incubated for another 15 min and subsequently terminated by 100 μL MeCN containing internal standard (propranolol, nadolol). Finally, the sample was centrifugated to obtain the supernatant for LC‒MS/MS analysis.

CYP2C9 = biological target: T4, CYP2C9 (Homo sapiens, UniProt P11712); assay: CYP enzyme inhibition assay, CYP2C9; format: in vitro ADME; conditions: human liver microsomes
T4 construct: An incubation system of human liver microsomes (20 μL, 1.5 mg/mL); from tissue; host or cells: human liver microsomes
Method: as §1

[2] = Plasma protein binding assay (equilibrium dialysis); format: in vitro ADME; conditions: rat plasma, dialysis 37 °C, read-out: plasma protein binding rate (%PPB) (converted)
Method: The DMSO solution of A12 was diluted to 100 μmol/L with MeOH:H2O (1:1) and then added to the pre-loaded plasma to obtain plasma samples with a test concentration of 1 μmol/L. Subsequently, 100 μL of control dialysis buffer (phosphate buffer + 0.002% Tween-80) and 100 μL of A12 plasma sample were transferred to the receiver and the donor side of dialysis chambers, respectively, two copies of each sample. The dialysis system was incubated in a shaker (37 °C, 6 h). Upon completion, 20 μL of samples were removed from each of the buffer and plasma chambers. After adding aliquots control plasma, PBS (0.002% Tween-80) respectively, 250 μL methanol solution with internal standard was added into each sample. The solution was mixed and centrifuged (3800 rpm, 10 min) to obtain the supernatant for LC‒MS/MS analysis.

HIV-1 mutant strains = assay: Antiviral activity against panel of HIV-1 mutant strains (summary ranges); format: cell-based
CYP3A4-T = biological target: T5, CYP3A4-T (Homo sapiens, UniProt P08684); assay: CYP enzyme inhibition assay, CYP3A4-T; format: in vitro ADME; conditions: human liver microsomes
T5 construct: An incubation system of human liver microsomes (20 μL, 1.5 mg/mL); from tissue; host or cells: human liver microsomes
Method: as §2

hERG channel = biological target: T6, hERG channel (Homo sapiens, UniProt Q12809); assay: hERG inhibition assay (QPatch, CHO-hERG cells); format: cell-based; conditions: automated QPatch, n = 3
T6 construct: expressed in transfected cells; host or cells: CHO-hERG cells
Method: CHO-hERG cells were cultured under the condition of 37 °C and 5% CO2. The culture medium was removed when the cell density grew to 60%–80%. Then, the cells were washed (PBS, 7 mL) and digested. After completion, culture medium (7 mL) was added for neutralization and then centrifuged to obtain the cells, which were subsequently resuspended into 5 mL of culture medium for automated Qpatch assays. The electrophysiology process was recorded using the QPatch instrument. The cells were clamped at an equilibrium potential of −80 mV. Voltage stimulation was conducted every 15 s, which concludes a 5 s, +40 mV depolarizing pulse and a 5 s, −50 mV repolarizing pulse. After 2 min of recording, extracellular fluid was given and recorded for 5 min. […] Each concentration was evaluated on 3 cells (n = 3).

HIV-1 Y181C = assay: Antiviral activity against HIV-1 mutant Y181C in MT-4 cells; format: cell-based
[3] = test system: six CYP isoenzymes (not named; range over all six); assay: CYP inhibition, six isoenzymes (summary range); format: in vitro ADME; conditions: human, human liver microsomes
Method: as §2

CYP3A4-M = CYP3A4-M (Homo sapiens, UniProt P08684); assay: CYP enzyme inhibition assay, CYP3A4-M; format: in vitro ADME; parameters: An incubation system of human liver microsomes (20 μL, 1.5 mg/mL); from tissue; host or cells: human liver microsomes; conditions: human liver microsomes
Method: as §1

[4] = Human liver microsomal stability assay; format: in vitro ADME
Method: A mixed system of human liver microsomes (0.5 mg/mL), MgCl2 (3 mmol/L), tested compound (1.0 μmol/L), and NADPH (1.0 mmol/L) in PBS (0.1 mol/L) was incubated at 37 °C. After 0, 5, 15, 30, 45, and 60 min, aliquots were sampled respectively and then terminated by adding methanol containing internal standard. After centrifugation using a Thermo Scientific Fresco 17 microcentrifuge (4 °C, 3800 rpm, 15 min), the supernatant was removed for LC‒MS/MS analysis.

HIV-1 K103N = assay: Antiviral activity against HIV-1 mutant K103N in MT-4 cells; format: cell-based; conditions: Human immunodeficiency virus 1, MT4, read-out: EC50 K103N

T1 sequence (P05177 whole entry): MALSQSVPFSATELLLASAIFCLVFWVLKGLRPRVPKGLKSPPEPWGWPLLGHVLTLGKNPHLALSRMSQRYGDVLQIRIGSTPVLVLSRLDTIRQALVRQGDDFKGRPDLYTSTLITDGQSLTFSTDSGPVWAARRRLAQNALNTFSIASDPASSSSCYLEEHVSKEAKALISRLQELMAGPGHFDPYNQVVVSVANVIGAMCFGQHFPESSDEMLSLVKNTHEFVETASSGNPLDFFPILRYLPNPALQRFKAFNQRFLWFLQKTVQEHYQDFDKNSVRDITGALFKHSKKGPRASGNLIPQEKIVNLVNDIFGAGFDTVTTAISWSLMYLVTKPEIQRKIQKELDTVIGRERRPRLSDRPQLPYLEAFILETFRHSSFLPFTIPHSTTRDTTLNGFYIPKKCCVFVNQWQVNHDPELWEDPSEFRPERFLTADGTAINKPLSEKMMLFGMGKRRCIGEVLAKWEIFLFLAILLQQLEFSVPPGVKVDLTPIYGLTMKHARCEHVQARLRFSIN
T2 sequence (P33261 whole entry): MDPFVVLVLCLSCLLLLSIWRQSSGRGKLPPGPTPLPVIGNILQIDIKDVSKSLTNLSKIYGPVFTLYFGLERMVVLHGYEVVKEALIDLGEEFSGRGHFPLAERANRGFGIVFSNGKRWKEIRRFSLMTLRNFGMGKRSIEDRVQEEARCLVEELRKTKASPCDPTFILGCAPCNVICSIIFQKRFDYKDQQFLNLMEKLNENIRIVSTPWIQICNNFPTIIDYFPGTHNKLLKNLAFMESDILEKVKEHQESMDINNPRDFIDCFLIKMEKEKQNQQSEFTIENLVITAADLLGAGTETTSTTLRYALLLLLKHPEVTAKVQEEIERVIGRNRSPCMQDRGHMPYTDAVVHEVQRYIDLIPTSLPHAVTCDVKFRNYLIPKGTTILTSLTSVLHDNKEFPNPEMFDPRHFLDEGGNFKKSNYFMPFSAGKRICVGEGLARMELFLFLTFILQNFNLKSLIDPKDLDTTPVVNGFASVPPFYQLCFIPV
T6 sequence (Q12809 whole entry): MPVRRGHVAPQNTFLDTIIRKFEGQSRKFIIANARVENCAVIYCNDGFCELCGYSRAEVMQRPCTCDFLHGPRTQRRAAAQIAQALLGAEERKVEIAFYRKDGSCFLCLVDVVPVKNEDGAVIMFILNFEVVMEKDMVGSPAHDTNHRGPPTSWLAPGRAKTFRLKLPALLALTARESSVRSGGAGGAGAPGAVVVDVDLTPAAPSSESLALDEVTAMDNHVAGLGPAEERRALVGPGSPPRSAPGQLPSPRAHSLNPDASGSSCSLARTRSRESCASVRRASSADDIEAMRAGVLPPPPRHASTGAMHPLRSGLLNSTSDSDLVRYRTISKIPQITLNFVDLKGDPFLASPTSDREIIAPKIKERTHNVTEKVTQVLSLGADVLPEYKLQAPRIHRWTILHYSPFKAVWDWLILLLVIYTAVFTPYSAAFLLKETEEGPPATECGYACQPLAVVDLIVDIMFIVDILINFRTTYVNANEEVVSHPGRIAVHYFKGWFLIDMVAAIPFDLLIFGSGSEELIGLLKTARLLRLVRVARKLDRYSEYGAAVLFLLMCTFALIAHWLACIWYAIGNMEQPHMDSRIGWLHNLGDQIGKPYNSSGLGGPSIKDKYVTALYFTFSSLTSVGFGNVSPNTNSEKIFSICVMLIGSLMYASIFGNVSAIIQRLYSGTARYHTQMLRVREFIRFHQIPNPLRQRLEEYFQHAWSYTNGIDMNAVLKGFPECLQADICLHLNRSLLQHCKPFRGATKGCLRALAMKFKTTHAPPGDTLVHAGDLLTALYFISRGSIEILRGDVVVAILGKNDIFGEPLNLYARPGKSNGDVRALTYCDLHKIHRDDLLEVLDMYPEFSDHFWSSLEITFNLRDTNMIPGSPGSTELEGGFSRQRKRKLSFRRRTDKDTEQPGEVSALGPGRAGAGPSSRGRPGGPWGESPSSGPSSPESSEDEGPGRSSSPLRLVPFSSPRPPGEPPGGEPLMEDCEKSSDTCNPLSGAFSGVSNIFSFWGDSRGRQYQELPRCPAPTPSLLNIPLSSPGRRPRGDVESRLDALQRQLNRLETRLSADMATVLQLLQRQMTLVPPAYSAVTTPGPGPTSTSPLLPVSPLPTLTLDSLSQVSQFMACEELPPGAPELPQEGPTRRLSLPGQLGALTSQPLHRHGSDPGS
T3 sequence (P10635 whole entry): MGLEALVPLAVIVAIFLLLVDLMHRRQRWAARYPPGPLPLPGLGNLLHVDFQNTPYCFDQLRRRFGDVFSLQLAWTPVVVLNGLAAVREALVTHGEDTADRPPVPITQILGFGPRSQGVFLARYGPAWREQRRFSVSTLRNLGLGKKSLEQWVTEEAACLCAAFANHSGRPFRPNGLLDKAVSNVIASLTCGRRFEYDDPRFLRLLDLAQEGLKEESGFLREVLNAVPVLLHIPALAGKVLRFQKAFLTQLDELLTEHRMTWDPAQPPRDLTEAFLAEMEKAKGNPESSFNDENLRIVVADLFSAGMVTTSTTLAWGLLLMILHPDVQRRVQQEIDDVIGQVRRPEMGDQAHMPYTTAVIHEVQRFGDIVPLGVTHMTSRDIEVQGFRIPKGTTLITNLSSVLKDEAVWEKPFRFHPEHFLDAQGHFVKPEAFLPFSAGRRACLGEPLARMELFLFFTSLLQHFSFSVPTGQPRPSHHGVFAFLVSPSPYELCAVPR
T4 sequence (P11712 whole entry): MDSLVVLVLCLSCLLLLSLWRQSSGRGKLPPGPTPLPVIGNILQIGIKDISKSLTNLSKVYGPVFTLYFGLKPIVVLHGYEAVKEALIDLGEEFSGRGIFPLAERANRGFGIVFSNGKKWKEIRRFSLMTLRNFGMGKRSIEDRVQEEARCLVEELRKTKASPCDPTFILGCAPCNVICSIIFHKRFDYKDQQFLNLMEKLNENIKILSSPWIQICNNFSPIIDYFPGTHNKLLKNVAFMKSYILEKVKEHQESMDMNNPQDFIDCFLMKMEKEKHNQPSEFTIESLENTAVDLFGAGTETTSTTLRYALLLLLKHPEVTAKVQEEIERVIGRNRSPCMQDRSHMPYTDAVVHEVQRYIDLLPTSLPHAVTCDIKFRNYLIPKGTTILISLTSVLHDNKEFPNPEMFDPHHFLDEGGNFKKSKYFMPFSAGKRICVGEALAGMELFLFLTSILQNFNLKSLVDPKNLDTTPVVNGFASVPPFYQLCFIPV
CYP3A4-M, sequence (P08684 whole entry): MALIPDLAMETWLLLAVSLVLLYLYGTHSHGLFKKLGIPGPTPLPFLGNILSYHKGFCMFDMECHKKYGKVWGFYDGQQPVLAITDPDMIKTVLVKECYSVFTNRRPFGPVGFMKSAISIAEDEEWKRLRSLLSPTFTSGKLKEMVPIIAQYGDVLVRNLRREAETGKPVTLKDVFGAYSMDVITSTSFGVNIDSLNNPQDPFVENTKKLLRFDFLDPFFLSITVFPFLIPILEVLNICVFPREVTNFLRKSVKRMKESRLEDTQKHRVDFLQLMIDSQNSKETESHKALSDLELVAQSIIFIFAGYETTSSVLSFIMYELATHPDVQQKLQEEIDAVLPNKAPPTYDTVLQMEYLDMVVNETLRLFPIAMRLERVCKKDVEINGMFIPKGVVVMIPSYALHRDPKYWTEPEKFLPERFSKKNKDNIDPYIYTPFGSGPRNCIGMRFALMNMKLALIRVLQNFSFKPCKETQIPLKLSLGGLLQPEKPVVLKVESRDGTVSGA
T5 sequence (P08684 whole entry): as above

With `Cc1cc(-c2ccc(C#N)cc2)cc(C)c1Nc1nc(Nc2ccc(C#N)cc2)ncc1F` [A12, 4′-((2-((4-Cyanophenyl)amino)-5-fluoropyrimidin-4-yl)amino)-3′,5′-dimethyl-[1,1′-biphenyl]-4-carbonitrile] the EC50 (HIV-1 E138K) was 0.006 ± 0.0005 µM, the EC50 (HIV-1 Y188L) was 0.06 ± 0.0092 µM and the IC50 (CYP1A2) was > 25 µM. The IC50 (WT HIV-1 RT) was 0.041 ± 0.0069 µM, the IC50 (CYP2C19) was 14.5 µM and the “HE staining of vital organs (brain, heart, liver, spleen, lung, kidney)” value (ICR mice; 2 g/kg i.g., Day 14) was “does not show any discernible pathological alteration in vital organs; also recorded: no notable pathological alterations were detected in the vital organs”. The “blood biochemical parameters (ALT, AST, CREA, UREA, CKMB)” value (ICR mice; 2 g/kg i.g., fourteen days after administration, vs control) was “no significant differences in blood biochemical parameters”, the mortality (ICR mice; male and female, single dose 2 g/kg i.g., 14 days) was “No instances of mortality were recorded” and the “acute toxicity, overall” value (ICR mice; single dose 2 g/kg) was “excellent tolerance at doses reaching 2 g/kg, without any manifestation of immediate toxicity”. For the same compound, the abnormal behavior (ICR mice; single dose 2 g/kg i.g., 14 days) was “no noteworthy deviations in behavior were detected”, the body weight growth (ICR mice; single dose 2 g/kg i.g., vs control group) was “growth patterns similar to that shown by the control group” and the EC50 [1] was 0.044 ± 0.018 µM. The IC50 (CYP2D6) was 14.5 µM, the IC50 (CYP2C9) was 6.99 µM and the fraction unbound at 6 h, 1 μmol/L [2] was 0.005. For the same compound, the EC50 (HIV-1 mutant strains; Human immunodeficiency virus 1, read-out: EC50 mutant strains L100I, K103N, Y181C, and E138K) was 0.0017 to 0.0071 µM, the EC50 (HIV-1 mutant strains; Human immunodeficiency virus 1, read-out: EC50 seven mutant strains) was 0.0017 to 0.157 µM and the IC50 (CYP3A4-T) was > 25 µM. The IC50 (hERG channel) was > 40 µM, the EC50 (HIV-1 Y181C; Human immunodeficiency virus 1, MT4, read-out: EC50 Y181C) was 0.0071 ± 0.0012 µM and the “fold higher efficacy against Y181C than toward RES056” value (HIV-1 Y181C; ratio of EC50 values) was 6.2 fold. For the same compound, the IC50 at 15 min [3] was 6.99 to 25 µM, the IC50 (CYP3A4-M) was > 25 µM and the half-life at 1 μmol/L ([4]; human liver microsomes 0.5 mg/mL, 1.0 μmol/L compound) was 24.3 min. It also gave a CLint scaled at 1 μmol/L ([4]; human liver microsomes, scaled to liver) of 51.3 mL/min/kg, a microsomal CLint at 1 μmol/L ([4]; human, microsomes) of 57 µL/min/mg and an EC50 (HIV-1 K103N) of 0.0017 ± 0.0005 µM.

— paper PMC12399242 (Acta Pharmaceutica Sinica. B, 2025)
